One data set relates to Ishikawa cell lines. Nature of the data set: In-vitro cytotoxicity (MTT cell viability assay). It is filed as cell-based. The note with it: Homo sapiens, read-out: IC50 values (Ishikawa cell lines, µM ± SD), in-vitro growth inhibition. On the procedure:
The cell growth inhibitory effects of the synthesised compounds were evaluated against Ishikawa cell lines. […] Forth, the synthesised compounds bearing a substituted phenyl ring at position 2 of the biaryl arm bearing benzopyrans were profiled for the cytotoxic effects. Noteworthy to mention that diverse substitutions with varied electronic effects viz fluorine (−I, +R), methoxy (−I, +R), and nitro (−I and − R) were made on the phenyl ring (position 2 of benzopyran). Also, the trimethoxy phenyl ring well established as an imperative structural feature of tubulin inhibitors was tethered to the benzopyran scaffold (20, 21).
Ishikawa cells (a human endometrial carcinoma of the epithelial cell) were kindly gifted by Dr. Geetanjali Sachdeva and Dr. Uddhav Chaudhari of National Institute for Research In Reproductive and Child Health (NIRRCH), Mumbai. […] The cells were maintained in RPMI medium supplemented with 10% Foetal bovine serum (FBS) and 100 IU/mL penicillin.
Mitochondrial activity was evaluated by MTT assay.[59] This assay is based on enzymatic reduction of the yellow-colored MTT dye to purple-colored formazan crystals by a variety of mitochondrial and cytosolic enzymes that are operational in viable cells. Briefly, […] (3000 cells/well) were seeded in 100 µL of medium into a 96-well plate and left to settle in a CO2 incubator. […] Then 150 μL of DMSO was added to each well to dissolve the formazan crystals. The optical density (OD) of each well was recorded using a microplate reader at a wavelength of 570 nm. The percentages of cell viability and growth inhibition were calculated according to the following equations. Cell viability (%) = [(OD of treated cells-OD of blank)/(OD of control-OD of blank) ×100].

Setting [1] is: Ishikawa cell lines, MTT, 48 h incubation, mean ± SD, at least three experiments.

Like-named read-outs stand apart in the source and are kept apart here. A value given as a limit tells only on which side of the number the result lay.

`COc1ccc(/C=C\c2cc(OC)c(OC)c(OC)c2)cc1O` [Combretastatin, Combretastatin A-4, reference compound]: in the data set on Ishikawa cell lines (setting [1]), the IC50 amounted to 4.21 ± 0.78 µM. As for `O=c1cc(-c2ccccc2)oc2cc(-c3ccccc3)ccc12` [Compound 1, 2,7-diphenyl-4H-chromen-4-one], the melting point lay within 153 to 157 °C. Besides, the IC50 in the data set on Ishikawa cell lines (setting [1]) came out at 3 ± 1.09 µM. For `O=c1cc(-c2ccccc2)oc2cc(-c3ccoc3)ccc12` [Compound 2, 7-(Furan-3-yl)-2-phenyl-4H-chromen-4-one] the same measures were 163 to 167 °C and 1.5 ± 0.67 µM. The matching figures for `O=c1cc(-c2ccccc2)oc2cc(-c3cccs3)ccc12` [Compound 3, 2-phenyl-7-(thiophen-2-yl)-4H-chromen-4-one]: 186 to 189 °C and 2.1 ± 0.89 µM. Regarding `O=c1cc(-c2ccccc2)oc2cc(-c3ccc4c(c3)OCCO4)ccc12` [Compound 4, 7–(2,3-dihydrobenzo[b][1,4]dioxin-6-yl)-2-phenyl-4H-chromen-4-one], the melting point lay within 181 to 184 °C. Further, the IC50 with Ishikawa cell lines (setting [1]) was more than 10 µM. For `O=c1cc(-c2ccccc2)oc2cc(-c3ccc4ncccc4c3)ccc12` [Compound 5, 2-phenyl-7-(quinolin-6-yl)-4H-chromen-4-one] the same measures were 136 to 140 °C and more than 10 µM.

`O=c1cc(-c2ccccc2)oc2cc(-c3ccc4[nH]ccc4c3)ccc12` [Compound 6, 7-(1H-indol-5-yl)-2-phenyl-4H-chromen-4-one] registered a melting point of 246 to 249 °C. For the same compound, the IC50 in the data set with Ishikawa cell lines (setting [1]) was more than 10 µM. `COc1ccc(-c2cc(=O)c3ccc(-c4ccccc4)cc3o2)cc1` [Compound 7, 2–(4-methoxyphenyl)-7-phenyl-4H-chromen-4-one] came in with a melting point of 172 to 175 °C. Also, in the data set with Ishikawa cell lines (setting [1]), the 50% inhibitory concentration (IC50) turned out to be 6.3 ± 1.08 µM.

`COc1ccc(-c2cc(=O)c3ccc(-c4ccoc4)cc3o2)cc1` [Compound 8, 7-(Furan-3-yl)-2–(4-methoxyphenyl)-4H-chromen-4-one] yielded a melting point of 173 to 176 °C. Moreover, the IC50 in the data set with Ishikawa cell lines (setting [1]) stood at 3.2 ± 1.04 µM.

As for `COc1ccc(-c2cc(=O)c3ccc(-c4cccs4)cc3o2)cc1` [Compound 9, 2–(4-methoxyphenyl)-7-(thiophen-2-yl)-4H-chromen-4-one], the melting point is 180 to 184 °C. In addition, in the data set on Ishikawa cell lines (setting [1]), the IC50 is 3 ± 0.785 µM. The matching figures for `COc1ccc(-c2cc(=O)c3ccc(-c4ccc5c(c4)OCCO5)cc3o2)cc1` [Compound 10, 7–(2,3-dihydrobenzo[b][1,4]dioxin-6-yl)-2–(4-methoxyphenyl)-4H-chromen-4-one]: 183 to 186 °C and more than 10 µM. The matching figures for `COc1ccc(-c2cc(=O)c3ccc(-c4ccc5ncccc5c4)cc3o2)cc1` [Compound 11, 2–(4-methoxyphenyl)-7-(quinolin-6-yl)-4H-chromen-4-one]: 221 to 224 °C and more than 10 µM. For `COc1ccc(-c2cc(=O)c3ccc(-c4ccc5[nH]ccc5c4)cc3o2)cc1` [Compound 12, 7-(1H-indol-5-yl)-2–(4-methoxyphenyl)-4H-chromen-4-one] the same measures were 129 to 132 °C and more than 10 µM. `O=c1cc(-c2ccc(F)cc2)oc2cc(-c3ccccc3)ccc12` [Compound 13, 2–(4-fluorophenyl)-7-phenyl-4H-chromen-4-one]: the melting point lay within 193 to 196 °C. The IC50 with Ishikawa cell lines (setting [1]) worked out at 2.03 ± 1.1 µM. For `O=c1cc(-c2ccc(F)cc2)oc2cc(-c3cccs3)ccc12` [Compound 15, 2–(4-fluorophenyl)-7-(thiophen-2-yl)-4H-chromen-4-one] the same measures were 202 to 205 °C and 1.5 ± 1.08 µM. For `O=c1cc(-c2ccc(F)cc2)oc2cc(-c3ccc4c(c3)OCCO4)ccc12` [Compound 16, 7–(2,3-dihydrobenzo[b][1,4]dioxin-6-yl)-2–(4-fluorophenyl)-4H-chromen-4-one] the same measures were 193 to 196 °C and more than 10 µM. For `O=c1cc(-c2ccc(F)cc2)oc2cc(-c3ccc4ncccc4c3)ccc12` [Compound 17, 2–(4-fluorophenyl)-7-(quinolin-6-yl)-4H-chromen-4-one] the same measures were 236 to 240 °C and more than 10 µM. `O=c1cc(-c2ccc(F)cc2)oc2cc(-c3ccc4[nH]ccc4c3)ccc12` [Compound 18, 2–(4-fluorophenyl)-7-(1H-indol-5-yl)-4H-chromen-4-one] showed a melting point of 229 to 232 °C. In addition, in the data set with Ishikawa cell lines (setting [1]), the IC50 is more than 10 µM.

As for `O=c1cc(-c2ccc([N+](=O)[O-])cc2)oc2cc(-c3ccc4[nH]ccc4c3)ccc12` [Compound 19, 7-(1H-indol-5-yl)-2–(4-nitrophenyl)-4H-chromen-4-one], the melting point was 255 to 258 °C. Also, in the data set with Ishikawa cell lines (setting [1]), the IC50 is more than 10 µM.

With `COc1cc(-c2cc(=O)c3ccc(-c4ccc5ncccc5c4)cc3o2)cc(OC)c1OC` [Compound 20, 7-(Quinolin-6-yl)-2–(3,4,5-trimethoxyphenyl)-4H-chromen-4-one], the melting point lay in the range of 214 to 217 °C. Further, the IC50 with Ishikawa cell lines (setting [1]) was more than 10 µM.

`COc1cc(-c2cc(=O)c3ccc(-c4ccc5[nH]ccc5c4)cc3o2)cc(OC)c1OC` [Compound 21, 7-(1H-indol-5-yl)-2–(3,4,5-trimethoxyphenyl)-4H-chromen-4-one] yielded a melting point of 246 to 250 °C. Moreover, the IC50 with Ishikawa cell lines (setting [1]) was more than 10 µM.

As to `O=C(c1cc(Cc2n[nH]c(=O)c3ccccc23)ccc1F)N1CCN(C(=O)C2CC2)CC1` [Olaparib, reference compound], the IC50 in the data set on Ishikawa cell lines (Ishikawa, 48 h) worked out at 3.91 ± 1.06 µM. With `O=c1cc(-c2ccccc2)oc2ccccc12` [X, reference compound], the IC50 in the data set on Ishikawa cell lines (setting [1]) was more than 10 µM.
